Source: the supplement of paper PMC10307832

How the values were obtained:
Test in all cases: relative viability (nuclei count vs DMSO), 5 days (fraction); higher = more cells survive
[1] = compound: C1=CC=C2C(=C1)N=C(S2)C(C#N)C3=NC(=NC=C3)NCCC4=CN=CC=C4 + O=C(CCCCCCC(=O)Nc1ccccc1)NO [Vorinostat] (partner 1 µM)
Outline: (§1)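 Relative viability is defined as nuclei in treated wells over nuclei in vehicle wells. Duplicate plates were run and medians reported. Lung cancer cell lines in 1536-well plates were dosed by pin tool one day after seeding, with one drug or with a fixed anchor-drug dose plus five library-drug doses (not always all listed) in √10 steps, and nuclei were counted after 5 days.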

NVP-TAE684 + Tozasertib = compound: COc1cc(N2CCC(N3CCN(C)CC3)CC2)ccc1Nc1ncc(Cl)c(Nc2ccccc2S(=O)(=O)C(C)C)n1 [NVP-TAE684] + Cc1cc(Nc2cc(N3CCN(C)CC3)nc(Sc3ccc(NC(=O)C4CC4)cc3)n2)n[nH]1 [Tozasertib] (partner 0.1 µM)
Outline: as §1

NVP-TAE684 + Pictilisib = compound: COc1cc(N2CCC(N3CCN(C)CC3)CC2)ccc1Nc1ncc(Cl)c(Nc2ccccc2S(=O)(=O)C(C)C)n1 [NVP-TAE684] + CS(=O)(=O)N1CCN(Cc2cc3nc(-c4cccc5[nH]ncc45)nc(N4CCOCC4)c3s2)CC1 [Pictilisib] (partner 1 µM)
Outline: as §1

Vandetanib + Vorinostat = compound: COc1cc2/c(=N/c3ccc(Br)cc3F)nc[nH]c2cc1OCC1CCN(C)CC1 [Vandetanib] + O=C(CCCCCCC(=O)Nc1ccccc1)NO [Vorinostat] (partner 1 µM)
Outline: as §1

Row | Cell Line | relative viability ([1]; first compound 0.005 µM) | relative viability ([1]; first compound 0.01581 µM) | relative viability ([1]; first compound 0.05 µM) | relative viability ([1]; first compound 0.1581 µM) | relative viability ([1]; first compound 0.5 µM) | relative viability (NVP-TAE684 + Tozasertib; first compound 0.2 µM) | relative viability (NVP-TAE684 + Tozasertib; first compound 0.6325 µM) | relative viability (NVP-TAE684 + Tozasertib; first compound 2 µM) | relative viability (NVP-TAE684 + Pictilisib; first compound 0.2 µM) | relative viability (NVP-TAE684 + Pictilisib; first compound 0.6325 µM) | relative viability (NVP-TAE684 + Pictilisib; first compound 2 µM) | relative viability (Vandetanib + Vorinostat; first compound 0.02 µM) | relative viability (Vandetanib + Vorinostat; first compound 0.06325 µM) | relative viability (Vandetanib + Vorinostat; first compound 0.2 µM) | relative viability (Vandetanib + Vorinostat; first compound 0.6325 µM) | relative viability (Vandetanib + Vorinostat; first compound 2 µM)
1 | NCI-H2405 | 0.82 | 0.938 | 0.953 | 1.15 | 0.727 | 0.742 | 0.664 | 0.35 | 0.522 | 0.348 | 0.284 | 1.02 | 0.885 | 0.97 | 1.14 | 0.898
2 | NCI-H3122 | 0.923 | 1.34 | 0.97 | 1.05 | 1.1 | 0.156 | 0.091 | 0.118 | 0.211 | 0.181 | 0.202 | 0.95 | 0.965 | 1.08 | 1.02 | 0.994
3 | PC-3 [JPC-3] | 0.864 | – | 0.843 | 0.991 | 0.737 | 0.926 | 0.86 | 0.584 | 0.697 | 0.684 | 0.65 | 0.808 | 0.739 | 0.492 | 0.449 | 0.348
4 | PC-14 | 0.642 | 0.769 | 0.675 | 0.753 | 0.576 | 0.627 | 0.531 | 0.461 | 0.726 | 0.589 | 0.157 | 0.774 | 0.619 | 0.493 | 0.107 | 0.0824
5 | RERF-LC-KJ | 0.603 | 0.623 | 0.609 | 0.7 | 0.578 | 0.469 | 0.488 | 0.268 | 0.613 | 0.484 | 0.494 | 0.689 | 0.607 | 0.724 | 0.608 | 0.536
6 | SK-LU-1 | 0.643 | 0.859 | 0.787 | 0.911 | 0.685 | 0.333 | 0.305 | 0.216 | 0.501 | 0.524 | 0.444 | 0.879 | 0.494 | 0.798 | 0.918 | 0.767
7 | SK-MES-1 | 1.01 | 1.06 | 0.938 | 1.32 | 0.935 | 0.958 | 0.892 | 0.48 | 0.475 | 0.393 | 0.309 | 1.05 | 0.916 | 1.1 | 0.949 | 0.795
8 | SW 1573 | 0.577 | 0.82 | 0.43 | 0.846 | 0.618 | 0.216 | 0.16 | 0.139 | 0.571 | 0.471 | 0.39 | 0.635 | 0.674 | – | 0.957 | 0.751
